# According to US5508174A, “Method and micro roller bottle for in vitro exposure of cells to volatile chemicals” (The United States of America as represented by the …, priority 1993, dated 1996):
# System: Primary hepatocytes
# Test: in vitro exposure of primary hepatocytes to volatile HCFCs, enzyme leakage (LDH and AST)
# Format: cell-based
# Conditions: 10,000, 100,000 and 500,000 ppm, 24 hours
# Excerpt: Any adherent cell line or adherent primary cell type can be used in this system. Adherent cell lines may attach to glass walls, i.e., the inner surface of a glass body 10. When cells reach confluency, exposure can bc initiated. […] This can be accomplished by attaching primary cells to a sterile strip of inert mesh 38, e.g., nylon mesh, precoated with an attachment factor such as collagen. The mesh is carefully rolled and placed into body 10 through one of the openings 14 or 16. After the mesh is unrolled within body 10, the openings 14 and 1.6 are sealed using the septa or the valve 22 previously described.
# The cells to be tested are washed and isolated using known procedures. The washed isolated cells are resuspended at a suitable cell density, e.g., about 10^6 to 10^7 /ml, in a suitable culture medium, e.g., Williams E or Leibovitz's-15. The culture medium may be supplemented with a suitable media supplement, e.g., fetal calf serum, dexamethasone, etc. The suspended cells are distributed over the mesh or over the inner surface of device 10. The cells are allowed to attach for a suitable period. If the mesh is used, it is rolled into a narrow tube, inserted into device 10 and allowed to unroll. Culture medium is added to the device 10 to a desired quantity. Scaling means 18 and 20 are inserted into openings 14 and 16. […]
# A syringe needle is inserted through one of the sealing means 18 or 20 to provide egress for excess atmosphere within device 10. […] A sample of the atmosphere within device 10 is taken from each device prepared for testing and analyzed by gas-chromatography (GC) to determine the actual concentration of the volatile compound in the device.
# The thus-prepared test device is placed on a roller apparatus in an incubator at a suitable temperature. […] At the termination exposure, a second sample of the atmosphere should be taken and analyzed by GC to ensure that the volatile compound is present at a concentration of at least about 95% of that measured initially. […]
row,Structure (SMILES),"relative rank ordering of toxicity, based on lactate dehydrogenase (LDH) and S-amino-transferase (AST) enzyme leakages"
1,"CC(F)(F)Cl [HCFC-142b, 1-chloro-1,1-difluoroethane]",HCFC-123>HCFC-123/142b>HCFC-124>HCFC-142b
2,"FC(Cl)C(F)(F)F (stereo not drawn) [HCFC-124, 1-chloro-1,2,2,2-trifiuoroethane]",HCFC-123>HCFC-123/142b>HCFC-124>HCFC-142b
3,"FC(F)(F)C(Cl)Cl [HCFC-123, 2,2-dichloro-1,1,1-trifluoroethane]",HCFC-123>HCFC-123/142b>HCFC-124>HCFC-142b
